The source of these data is patent publication US4816441A, “Peptides and compositions” (priority 1985, dated 1989).

One data set relates to complement system. Kind of data set: Activation of complement: generation of C5a des-Arg in normal human serum (RIA). Type of data set: biochemical. Conditions: 60 minutes incubation, aliquots at 0, 30, 60 minutes, FIG. 4. How it is done:
In order to investigate the influence of the compounds of the invention on the complement system a test was performed in which the generation of the complement split product C5a was used as a measure of the activation of complement.
Aliquots were taken after 0, 30, and 60 minutes and the generated C5a des-Arg was quantitated by a commercial RIA-kit (Upjohn Company, Kalamazoo, MI).

For data set [1], the system named is Daudi. Description: NK-like activity of PBL incubated with SpA peptides or intact SpA, 51Cr release, Daudi targets. Conditions: E/T 10:1. Type of data set: cell-based, human. How it is done: (§1) K-cell activity is here defined as the increase in cell mediated cytotoxicity of normal peripheral blood leukocytes (PBL) against tumor derived target cells. PBL were isolated by the Boyum method (Scand.J.Clin.Lab.Invest. 22 (1968) 77) by centrifugation of heparinized blood from healthy donors on Ficoll-Hypaque® (Pharmacia, Uppsala, Sweden). In many experiments adherent cells were removed by incubating PBL in sterile glass bottles at 37° C. for 1 to 2 hours.
(§2) The cell lines were kept in culture in RPMI 1640 (Gibco, Paisley, Scotland, Cat. No. 041-1875) to which was added fetal calf serum (10% v/v) (FCS) as well as penicillin (100 IU/ml) and streptomycin (100 μg/ml) at 37° C. and carbon dioxide in air.
(§3) The target cells were labelled with ^51 Cr (New England Nuclear, Dreieich, West Germany).
(§4) The medium used was RPMI 1640 to which was added 10% of FCS, penicillin (100 IU/ml) and streptomycin (100 μg/ml). After incubation, the cell density was adjusted and the cells were distributed in round-bottom microtiter plates (NUNC, Roskilde, Denmark). ^51 Cr-labeled K562 target cells were added to a desired ratio between effector (E) and target (T) cells (E/T 10:1). After a further 4 hours of incubation at 37° C. with 6% CO2 in air, the plates were placed on a Titertek® microtiter plate shaker (Flow Laboratories Ltd., Ayrshire, Scotland). The microtiter plates were centrifuged and known volumes of the supernatant removed by suction and counted ^51 Cr-sample). As maximum value (^51 Cr-max), use was made of the supernatant from K562 incubated with saponin. The spontaneous release of ^51 Cr (^51 Cr-spont) was measured by incubating ^51 Cr-K562 without effector cells.
(§5) Kill %: […]
(§6) The method employed was practically the same as above for Daudi and Raji targets. The only substantial difference was that no preincubation was performed prior to addition of the ^51 Cr-labelled target cells, and the complete incubation of effector and target cells was done in 24 hours. The Kill % was calculated as described above.

The subject of data set [2] is Daudi. Description: Long-term test, LAK-like activity, Daudi targets. Type of data set: cell-based, human. As to conditions: 20 μg/ml; E/T 10:1.
Description: 6×10^6 monocyte-depleted mononuclear cells were incubated in 6 ml RPMI 1640 +5% FCS, penicillin (100 IU/ml) and streptomycin (100 μg/ml) in vertically suspended Falcon flasks (Falcon Plastics, Oxnard, CA., USA, Cat. No. 3013). As in the short-term test, 1.5, 6, 25 or 100 μg peptide per ml, respectively, were added. […] Incubation for 72 h at 37° C., 7% CO2. The cells were counted, density adjusted and the cells incubated together with ^51 Cr-labelled Raji and Daudi target cells. E/T ratios were: 10:1 and 20:1. In the Daudi test the incubation lasted 16 hours, in the Raji test it was 18 hours (round-bottom microtiter plates, as above).
Data set [3] in a line: Guinea pig model: anaphylactoid-like reaction after intravenous administration. Type of data set: in vivo, guinea pigs of Dunkin-Hartley strain. Conditions: anaesthesized artificially ventilated guinea pigs. As to the method: Guinea pigs of Dunkin-Hartley strain (ca. 500 g) were anaesthesized with sodium pentobarbital and were surgically prepared with a catheter in the jugular vein for drug infusion. The blood pressure was registered from a carotid artery. The animals were artificially ventilated by a Harvard small animal respirator at a cycle of 38 insufflations per min. and a volume of 1 ml per 100 g animal.

Another data set concerns Raji. Description: NK-like activity of PBL incubated with SpA peptides or intact SpA, 51Cr release, Raji targets. Conditions: E/T 10:1. Type of data set: cell-based, human. How it is done: as §1, §2, §3, §4, §5, §6

“SpA: protein A from Staphylococcus aureus, purified, from Pharmacia, Uppsala, Sweden”: the “Activation of complement (C5a des-Arg generation)” value in the data set on complement system is listed as “considerable C5a generating capacity”. Also, the “% kill Daudi” value stood at 66% in the data set on Daudi [1] (5 μg/ml (12.5 pmol/ml)), 71% with Daudi [1] (5 μg/ml (125 pmol/ml)) and 77% in the data set with Daudi [1] (10 μg/ml (250 pmol/ml)). Further, in the data set on Daudi [2], the “Stimulation index, long-term assay (LAK-like activity), Daudi” value was 1.19. The “Anaphylactoid-like reaction (bronchoconstriction, hypertension, later hypotension)” value in data set [3] was “produced an anaphylactoid-like reaction”. Also, the “% kill Raji” value in the data set on Raji (5 μg/ml (12.5 pmol/ml)) is 31%; in the data set with Raji (5 μg/ml (125 pmol/ml)), 46%; in the data set on Raji (10 μg/ml (250 pmol/ml)), 46%.
